Source: ChEMBL document CHEMBL1201862, “PubChem BioAssay data set” (2004)
The source made the active and inactive calls.

How the values were obtained:
Aminopeptidase N = target: T1, Aminopeptidase N (Plasmodium falciparum FcB1/Columbia, UniProt O96935); assay: P. falciparum M1AAP inhibitors, biochemical, fluorogenic H-Leu-NHMec substrate, 1536-well (AID 1445); parameters: species or system Plasmodium falciparum 3D7, 3D7
T1 sequence (O96935 whole entry): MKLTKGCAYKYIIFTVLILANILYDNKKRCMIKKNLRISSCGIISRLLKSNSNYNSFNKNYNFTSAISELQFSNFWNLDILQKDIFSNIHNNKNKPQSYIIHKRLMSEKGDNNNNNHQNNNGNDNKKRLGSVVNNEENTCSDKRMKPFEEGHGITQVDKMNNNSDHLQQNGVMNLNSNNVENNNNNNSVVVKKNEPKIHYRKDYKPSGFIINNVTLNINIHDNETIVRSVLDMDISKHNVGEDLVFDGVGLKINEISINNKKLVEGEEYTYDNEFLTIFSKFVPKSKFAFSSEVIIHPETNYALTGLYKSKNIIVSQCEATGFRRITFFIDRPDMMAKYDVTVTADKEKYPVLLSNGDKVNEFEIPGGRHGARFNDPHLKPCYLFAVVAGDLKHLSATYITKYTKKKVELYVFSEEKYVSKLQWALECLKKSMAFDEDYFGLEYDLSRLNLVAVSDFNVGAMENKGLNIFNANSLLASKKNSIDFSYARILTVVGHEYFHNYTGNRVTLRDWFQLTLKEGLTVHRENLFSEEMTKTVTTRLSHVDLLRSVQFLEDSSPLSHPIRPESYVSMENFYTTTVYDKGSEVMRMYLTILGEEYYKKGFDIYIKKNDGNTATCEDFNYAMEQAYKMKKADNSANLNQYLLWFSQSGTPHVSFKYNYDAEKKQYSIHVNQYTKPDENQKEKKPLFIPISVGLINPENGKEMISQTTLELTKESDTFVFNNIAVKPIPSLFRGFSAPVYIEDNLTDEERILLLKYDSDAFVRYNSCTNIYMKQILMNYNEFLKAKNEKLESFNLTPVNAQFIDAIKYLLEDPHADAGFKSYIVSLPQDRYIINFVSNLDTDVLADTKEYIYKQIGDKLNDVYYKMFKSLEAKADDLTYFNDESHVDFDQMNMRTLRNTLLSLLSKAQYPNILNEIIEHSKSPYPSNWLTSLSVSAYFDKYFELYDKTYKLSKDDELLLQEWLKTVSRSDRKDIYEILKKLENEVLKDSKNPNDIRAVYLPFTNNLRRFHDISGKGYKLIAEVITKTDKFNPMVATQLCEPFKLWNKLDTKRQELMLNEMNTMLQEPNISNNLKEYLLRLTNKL

[1] = target: Nuclear receptor subfamily 5 group A member 2 (Homo sapiens, UniProt O00482); type: functional, cell-based;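 further: HEK293T cells transfected with LRH-1 and a StAR promoter luciferase reporter; potency for inhibitors that lower LRH-1 driven reporter light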
Nuclear receptor subfamily 5 group A member 2, sequence (O00482 whole entry): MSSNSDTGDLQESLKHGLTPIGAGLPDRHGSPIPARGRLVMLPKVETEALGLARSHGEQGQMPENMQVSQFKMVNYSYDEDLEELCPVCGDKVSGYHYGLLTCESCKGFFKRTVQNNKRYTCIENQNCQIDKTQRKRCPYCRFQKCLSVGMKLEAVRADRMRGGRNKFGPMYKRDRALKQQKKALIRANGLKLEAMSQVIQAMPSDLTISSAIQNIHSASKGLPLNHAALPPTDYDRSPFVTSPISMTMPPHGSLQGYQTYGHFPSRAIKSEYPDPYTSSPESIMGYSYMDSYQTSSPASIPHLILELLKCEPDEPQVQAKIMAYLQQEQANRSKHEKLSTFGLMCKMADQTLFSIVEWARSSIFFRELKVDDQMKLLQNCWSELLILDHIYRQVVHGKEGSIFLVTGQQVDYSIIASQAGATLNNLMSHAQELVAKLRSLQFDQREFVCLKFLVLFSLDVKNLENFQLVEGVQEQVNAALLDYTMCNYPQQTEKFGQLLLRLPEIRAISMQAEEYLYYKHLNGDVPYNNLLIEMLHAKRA

Steroidogenic factor 1 = Steroidogenic factor 1 (Homo sapiens, UniProt Q13285); assay: Counterscreen for inverse agonists of the liver receptor homolog-1 (LRH-1; NR5A2): Luminescence-based cell-based high throughput dose response assay to identify inverse agonists of the Steroidogenic Factor 1 Nuclear Receptor (SF1; NR5A1).; type: functional
Steroidogenic factor 1, sequence (Q13285 whole entry): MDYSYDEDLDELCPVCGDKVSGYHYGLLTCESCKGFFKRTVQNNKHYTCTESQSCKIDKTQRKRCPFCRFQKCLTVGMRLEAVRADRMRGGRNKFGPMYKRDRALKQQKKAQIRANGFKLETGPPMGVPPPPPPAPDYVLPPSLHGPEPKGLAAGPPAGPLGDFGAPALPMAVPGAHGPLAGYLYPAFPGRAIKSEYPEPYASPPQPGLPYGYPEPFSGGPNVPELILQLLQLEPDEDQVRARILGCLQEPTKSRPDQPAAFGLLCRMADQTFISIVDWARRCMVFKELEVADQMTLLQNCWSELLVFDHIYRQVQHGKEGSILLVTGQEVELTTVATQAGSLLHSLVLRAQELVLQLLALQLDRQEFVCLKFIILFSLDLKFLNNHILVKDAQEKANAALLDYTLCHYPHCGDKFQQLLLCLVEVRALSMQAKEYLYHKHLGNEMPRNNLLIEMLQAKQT

[2] = StAR promoter reporter inhibition counter-screen, dose response, counter-screen for LRH-1 inverse agonist project, cell-based, luminescence, luciferase reporter (AID 651969); type: functional
[3] = Shn3 3'UTR reporter inhibitors, dose response, cell-based, Clone20 osteoblasts, firefly luciferase, cherry-picked (AID 624132); type: functional;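 further: firefly luciferase luminescence from reporter carrying the Shn3 3'UTR in osteoblasts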
[4] = HepG2 cell cytotoxicity, dose response, cytotoxicity control for Shn3 inhibitor project, CellTiter-Glo, cherry-picked (AID 624134); type: functional, cell-based
[5] = control 3'UTR Renilla luciferase suppression, dose response, counter-screen for Shn3 inhibitor project, cell-based, Clone20-Shn3RL, cherry-picked (AID 624133); type: functional
[6] = C. albicans growth with fluconazole, confirmation, fluorescence, retest (AID 2467); type: functional, cell-based
Coagulation factor XII = target: T2, Coagulation factor XII (Homo sapiens, UniProt P00748); type: functional;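 further: activated factor XIIa alpha cleaving a fluorogenic AMC peptide substrate; inhibitor potency from loss of enzyme activity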
T2 sequence (P00748 whole entry): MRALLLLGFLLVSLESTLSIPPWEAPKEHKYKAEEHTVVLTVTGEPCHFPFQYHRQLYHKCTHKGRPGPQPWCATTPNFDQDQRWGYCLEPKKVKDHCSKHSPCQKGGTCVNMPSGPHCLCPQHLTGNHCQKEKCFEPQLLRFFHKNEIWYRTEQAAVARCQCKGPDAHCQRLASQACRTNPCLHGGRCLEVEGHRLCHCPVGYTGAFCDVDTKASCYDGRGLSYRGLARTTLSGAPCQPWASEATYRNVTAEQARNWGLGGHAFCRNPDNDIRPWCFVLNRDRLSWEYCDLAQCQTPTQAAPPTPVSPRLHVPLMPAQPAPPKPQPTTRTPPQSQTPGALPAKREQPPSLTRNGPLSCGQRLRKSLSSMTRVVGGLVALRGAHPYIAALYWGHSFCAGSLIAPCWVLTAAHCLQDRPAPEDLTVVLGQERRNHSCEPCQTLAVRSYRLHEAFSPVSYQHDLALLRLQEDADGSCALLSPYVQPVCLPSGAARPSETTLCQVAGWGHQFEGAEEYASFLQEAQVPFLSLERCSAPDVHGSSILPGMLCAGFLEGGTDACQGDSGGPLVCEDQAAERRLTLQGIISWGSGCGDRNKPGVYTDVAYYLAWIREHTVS

BJ [7] = assay: cytotoxicity toward BJ-TERT fibroblasts, dose response, cell-based, RAS-independent, luminescence (AID 1933); type: functional; settings: Homo sapiens
BJ [8] = assay: cytotoxicity toward BJ-TERT-LT-ST fibroblasts, dose response, cell-based, RAS-independent, luminescence (AID 1935); type: functional; settings: Homo sapiens;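 further: BJ fibroblasts immortalized with TERT plus LT and ST oncogenes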
[9] = NIH-3T3 fibroblast cytotoxicity, dose response, cytotoxicity control, cell-based, fluorescence, Alamar Blue, secondary assay (AID 2327); type: functional;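 further: NIH-3T3 mouse fibroblasts cultured with fluconazole at 8 µg/mL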
BJ [10] = assay: cells; type: functional, cell-based; settings: Homo sapiens
[11] = cytotoxicity toward DRD oncogenic fibroblasts, dose response, cell-based, non-viral oncogenic, luminescence (AID 1934); type: functional; settings: Homo sapiens
[12] = THP-1 cell cytotoxicity, dose response, cytotoxicity control for Vif-APOBEC3G degradation inhibitor project, THP-1 cells (AID 1117359); type: functional; settings: Human immunodeficiency virus 1, THP-1
Protein Tat = target: T3, Protein Tat (Human immunodeficiency virus type 1 group M subtype B (isolate HXB2)(HIV-1), UniProt P04608); type: functional;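 further: tat binding to TAR RNA read out by fluorescence polarization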
T3 sequence (P04608 whole entry): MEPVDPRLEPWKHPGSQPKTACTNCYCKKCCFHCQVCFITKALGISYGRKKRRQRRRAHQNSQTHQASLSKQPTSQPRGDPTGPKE

[13] = HepG2 cell cytotoxicity, dose response, cytotoxicity control for non-replicating M. tuberculosis project (AID 489018); type: functional; settings: Mycobacterium tuberculosis
[14] = THP-1 cell cytotoxicity, dose response, cytotoxicity control for non-replicating M. tuberculosis project (AID 489025); type: functional
[15] = target: Heat shock protein HSP 90-alpha (Homo sapiens, UniProt P07900); type: functional, organism-based

Compound: Nc1nnc(SCC(=O)Nc2ccccc2-c2ccccc2)[nH]1
- IC50 (Aminopeptidase N): 51.2 µM (active)

Compound: O=C(NCc1ccco1)c1nn(-c2ccccc2)c(=O)c2ccccc12
- IC50 [1]: 35.9 µM (inactive)
- IC50 (Steroidogenic factor 1): 3.09 µM (active)
- IC50 [2]: 12 µM (inactive)

Compound: NS(=O)(=O)c1ccc(CCNCc2cc(Cl)ccc2OCc2ccccc2)cc1
- AC50 [3]: 4.46 µM (active)
- AC50 [4]: 46.9 µM (active)
- AC50 [5]: 7.31 µM (active)

Compound: Cc1ccccc1S(=O)(=O)Nc1ncnc2scc(-c3ccccc3)c12
- IC50 (Aminopeptidase N): 24.3 µM (active)

Compound: O=C(NN1C(=O)c2ccccc2NC1c1ccoc1)c1ccccc1 (centres undefined)
- IC50 (Aminopeptidase N): 46.5 µM (active)

Compound: CCOc1ccc(-c2c(C)[n+](-c3ccc(OCC)cc3)c3n2CCCCC3)cc1.[O-][Cl+3]([O-])([O-])[O-]
- EC50 [6]: 2.36 µM (active)
- IC50 (Coagulation factor XII): > 50 µM (inactive)
- EC50 (BJ [7]): 9.44 µM (inconclusive)
- EC50 (BJ [8]): 17.1 µM (active)
- EC50 [9]: 39.3 µM (active)
- EC50 (BJ [10]): 8.54 µM (active)
- EC50 [11]: 13.5 µM (inconclusive)

Compound: CCOC(=O)CC1C(=O)NCCN1c1nc2ccc(C)cn2c(=O)c1/C=C1\SC(=S)N(CC(C)C)C1=O (centres undefined)
- IC50 (Aminopeptidase N): 35.7 µM (active)

Compound: CCC(c1nnnn1Cc1ccco1)N(Cc1ccccc1OC)Cc1cc2cc(C)ccc2nc1O (centres undefined)
- CC50 [12]: > 40 µM (active)
- IC50 (Protein Tat): > 100 µM (inconclusive)

Compound: Cc1cc(C)c2nc(NC(=O)c3ccc([N+](=O)[O-])o3)sc2c1
- IC50 [1]: 35.9 µM (inactive)
- IC50 (Steroidogenic factor 1): 0.148 µM (active)
- IC50 [2]: 35.9 µM (inactive)

Compound: COc1ccc2cc(C(=O)NCc3ccccc3CN3CCCC3)ccc2c1
- CC50 [13]: > 20 µM (active)
- CC50 [14]: > 40 µM (active)

Compound: CN(C)C=O.NS(=O)(=O)c1cccc(NC(=O)CSc2nc(O)c3c(C(F)(F)F)cc(-c4cccs4)nc3n2)c1
- IC50 (Aminopeptidase N): 30.5 µM (active)

Compound: CC(C)OC(=O)c1ccc(NCc2cc(O)ccc2O)cc1
- AC50 [15]: 25 µM (active)
- AC50 [3]: 1.9 µM (active)
- AC50 [4]: 7.81 µM (active)
- AC50 [5]: 5.28 µM (active)
